Test results taken from patent US9284317B2, “Substituted imidazo[1,2-a]pyrazines as MPS-1 inhibitors” (Bayer Intellectual Property GmbH, priority 2010, dated 2016).

target: human kinase Mps-1 (N-terminally GST-tagged human full length recombinant Mps-1 kinase) (Homo sapiens (Human), UniProt P33981); experiment: Mps-1 Kinase Assay (TR-FRET); format: biochemical; details: 10 μM ATP, 1 μM biotinylated peptide substrate, 60 min at 22° C., read-out: Mps1 IC50
Method: The human kinase Mps-1 phosphorylates a biotinylated substrate peptide. Detection of the phosphorylated product is achieved by time-resolved fluorescence resonance energy transfer (TR-FRET) from Europium-labelled anti-phospho-Serine/Threonine antibody as donor to streptavidin labelled with cross-linked allophycocyanin (SA-XLent) as acceptor. Compounds are tested for their inhibition of the kinase activity.
N-terminally GST-tagged human full length recombinant Mps-1 kinase (purchased from Invitrogen, Karslruhe, Germany, cat. no PV4071) was used. As substrate for the kinase reaction a biotinylated peptide of the amino-acid sequence […] (C-terminus in amide form, purchased from Biosynthan GmbH, Berlin) was used.
The concentration of Mps-1 in the assay was adjusted to the activity of the enzyme lot and was chosen appropriate to have the assay in the linear range, typical enzyme concentrations were in the range of about 1 nM (final conc. in the 5 μl assay volume).
The resulting mixture was incubated 1 h at 22° C. to allow the binding of the phosphorylated peptide to the anti-phospho(Ser/Thr)-Europium-antibody. Subsequently the amount of phosphorylated substrate was evaluated by measurement of the resonance energy transfer from the Europium-labelled anti-phospho(Ser/Thr) antibody to the Streptavidin-XLent.

human kinase Mps-1 (N-terminally GST-tagged human full length recombinant Mps-1 kinase), sequence (P33981 whole entry): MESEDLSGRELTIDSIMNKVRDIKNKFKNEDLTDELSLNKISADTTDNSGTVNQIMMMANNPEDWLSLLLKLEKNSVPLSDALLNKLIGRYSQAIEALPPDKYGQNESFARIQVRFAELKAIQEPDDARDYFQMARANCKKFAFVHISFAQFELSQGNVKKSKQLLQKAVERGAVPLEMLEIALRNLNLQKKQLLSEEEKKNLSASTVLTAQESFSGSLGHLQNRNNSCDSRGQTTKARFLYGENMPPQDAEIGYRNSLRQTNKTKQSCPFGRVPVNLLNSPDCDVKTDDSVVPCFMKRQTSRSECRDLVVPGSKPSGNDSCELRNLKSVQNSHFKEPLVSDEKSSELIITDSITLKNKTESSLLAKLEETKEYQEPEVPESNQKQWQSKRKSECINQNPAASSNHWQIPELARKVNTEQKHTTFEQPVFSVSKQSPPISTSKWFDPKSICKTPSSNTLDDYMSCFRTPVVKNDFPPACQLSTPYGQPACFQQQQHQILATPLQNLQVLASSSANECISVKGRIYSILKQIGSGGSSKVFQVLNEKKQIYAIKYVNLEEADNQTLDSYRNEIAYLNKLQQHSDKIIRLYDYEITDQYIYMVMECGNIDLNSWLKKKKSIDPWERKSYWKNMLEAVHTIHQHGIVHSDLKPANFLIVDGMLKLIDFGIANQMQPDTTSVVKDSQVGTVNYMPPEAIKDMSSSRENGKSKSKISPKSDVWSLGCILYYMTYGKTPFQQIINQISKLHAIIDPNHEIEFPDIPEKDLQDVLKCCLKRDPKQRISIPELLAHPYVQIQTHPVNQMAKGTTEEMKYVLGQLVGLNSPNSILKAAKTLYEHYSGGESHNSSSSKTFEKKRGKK

SMILES | IC50 [nM]
CC(C)(C)OC(=O)NCC#CCCNc1nc(-c2ccccc2)cn2c(-c3ccc(C(=O)NC4CC4)cc3)cnc12 [Example 2-2, tert-Butyl [5-({3-[4-(cyclopropylcarbamoyl)phenyl]-6-phenylimidazo[1,2-a]pyrazin-8-yl}amino)pent-2-yn-1-yl]carbamate] | 94.6
C/C=C/c1cn2c(-c3ccc(C(=O)NC4CC4)c(F)c3)cnc2c(NCC2CCCO2)n1 (centres unmarked) [Example 1-17, N-cyclopropyl-2-fluoro-4-{6-[(1E)-prop-1-en-1-yl]-8-[(tetrahydrofuran-2-ylmethyl)amino]imidazo[1,2-a]pyrazin-3-yl}benzamide] | 99.2
C=C(C)c1cn2c(-c3ccc(C(=O)NC4CC4)cc3)cnc2c(NCC(C)C)n1 [Example 1-9, N-cyclopropyl-4-{8-[(2-methylpropyl)amino]-6-(prop-1-en-2-yl)imidazo[1,2-a]pyrazin-3-yl}benzamide] | 5.8
CC(C)CNc1nc(/C=C2\CCC(=O)N2C)cn2c(-c3ccc(C(=O)NC4CC4)cc3)cnc12 [Example 5-1, N-cyclopropyl-4-{6-[(E)-(1-methyl-5-oxopyrrolidin-2-ylidene)methyl]-8-[(2-methylpropyl)amino]imidazo[1,2-a]pyrazin-3-yl}benzamide] | 1.9
C/C=C/c1cn2c(-c3ccc(C(=O)NC4CC4)c(F)c3)cnc2c(NCC(C)C)n1 [Example 1-14, N-cyclopropyl-2-fluoro-4-{8-[(2-methylpropyl)amino]-6-[(1E)-prop-1-en-1-yl]imidazo[1,2-a]pyrazin-3-yl}benzamide] | 38.7
CC(C)CNc1nc(C2CC=CCC2)cn2c(-c3ccc(C(=O)NC4CC4)cc3)cnc12 (centres unmarked) [Example 1-6, 4-{6-(cyclohex-3-en-1-yl)-8-[(2-methylpropyl)amino]imidazo[1,2-a]pyrazin-3-yl}-N-cyclopropylbenzamide] | 2.8
CC(C)CNc1nc(NC(=O)c2ccccn2)cn2c(-c3ccc(C(=O)NC4CC4)cc3)cnc12 [Example 6-1, N-{3-[4-(cyclopropylcarbamoyl)phenyl]-8-[(2-methylpropyl)amino]imidazo[1,2-a]pyrazin-6-yl}pyridine-2-carboxamide] | 10.4
C/C=C/c1cn2c(-c3ccc(C(=O)NC4CC4)c(Cl)c3)cnc2c(NCc2ccnn2C)n1 [Example 1-13, 2-chloro-N-cyclopropyl-4-(8-{[(1-methyl-1H-pyrazol-5-yl)methyl]amino}-6-[(1E)-prop-1-en-1-yl]imidazo[1,2-a]pyrazin-3-yl)benzamide] | 70.6
C/C=C/c1cn2c(-c3ccc(C(=O)NC4CC4)cc3)cnc2c(NCC(C)C)n1 [Example 1-1, N-cyclopropyl-4-{8-[(2-methylpropyl)amino]-6-[(1E)-prop-1-en-1-yl]imidazo[1,2-a]pyrazin-3-yl}benzamide] | 6.2
C/C=C/c1cn2c(-c3ccc(C(=O)NC4CC4)c(Cl)c3)cnc2c(NCC(C)(C)O)n1 [Example 1-12, 2-chloro-N-cyclopropyl-4-{8-[(2-hydroxy-2-methylpropyl)amino]-6-[(1E)-prop-1-en-1-yl]imidazo[1,2-a]pyrazin-3-yl}benzamide] | 132
C=Cc1ccc(-c2cn3c(-c4ccc(C(=O)NC5CC5)cc4)cnc3c(NCC(C)C)n2)cc1 [Example 1-20, N-cyclopropyl-4-{6-(4-ethenylphenyl)-8-[(2-methylpropyl)amino]imidazo[1,2-a]pyrazin-3-yl}benzamide] | 21.4
C/C=C/c1cn2c(-c3ccc(C(=O)NC4CC4)c(F)c3)cnc2c(NCc2ccnn2C)n1 [Example 1-18, N-cyclopropyl-2-fluoro-4-(8-{[(1-methyl-1H-pyrazol-5-yl)methyl]amino}-6-[(1E)-prop-1-en-1-yl]imidazo[1,2-a]pyrazin-3-yl)benzamide] | 31.9
CC(C)CNc1nc(C2=CCCCC2)cn2c(-c3ccc(C(=O)NC4CC4)cc3)cnc12 [Example 1-3, 4-{6-(cyclohex-1-en-1-yl)-8-[(2-methylpropyl)amino]imidazo[1,2-a]pyrazin-3-yl}-N-cyclopropylbenzamide] | 4.2
C/C=C/c1cn2c(-c3ccc(C(=O)NC4CC4)c(Cl)c3)cnc2c(NCCC(F)(F)F)n1 [Example 1-11, 2-chloro-N-cyclopropyl-4-{6-[(1E)-prop-1-en-1-yl]-8-[(3,3,3-trifluoropropyl)amino]imidazo[1,2-a]pyrazin-3-yl}benzamide] | 34.3
CC(C)CNc1nc(C2CCCCC2)cn2c(-c3ccc(C(=O)NC4CC4)cc3)cnc12 [Example 4-1, 4-{6-cyclohexyl-8-[(2-methylpropyl)amino]imidazo[1,2-a]pyrazin-3-yl}-N-cyclopropylbenzamide] | 12.6
CC(C)CNc1nc(C2CCCC2)cn2c(-c3ccc(C(=O)NC4CC4)cc3)cnc12 [Example 4-2, 4-{6-cyclopentyl-8-[(2-methylpropyl)amino]imidazo[1,2-a]pyrazin-3-yl}-N-cyclopropylbenzamide] | 6.1
COCc1cccc(-c2cn3c(-c4ccc(C(=O)NC5CC5)cc4)cnc3c(NCC(C)C)n2)c1 [Example 1-2, N-cyclopropyl-4-{6-[3-(methoxymethyl)phenyl]-8-[(2-methylpropyl)amino]imidazo[1,2-a]pyrazin-3-yl}benzamide] | 7.1
CC(C)(C)OC(=O)NC/C=C/CCNc1nc(-c2ccccc2)cn2c(-c3ccc(C(=O)NC4CC4)cc3)cnc12 [Example 2-3, tert-Butyl [(2E)-5-({3-[4-(cyclopropylcarbamoyl)phenyl]-6-phenylimidazo[1,2-a]pyrazin-8-yl}amino)pent-2-en-1-yl]carbamate] | 64
C/C=C(/C)c1cn2c(-c3ccc(C(=O)NC4CC4)cc3)cnc2c(NCC(C)C)n1 [Example 1-4, 4-{6-[(2Z)-but-2-en-2-yl]-8-[(2-methylpropyl)amino]imidazo[1,2-a]pyrazin-3-yl}-N-cyclopropylbenzamide] | 1.9
C/C=C(\C)c1cn2c(-c3ccc(C(=O)NC4CC4)cc3)cnc2c(NCC(C)C)n1 [Example 1-7, 4-{6-[(2E)-but-2-en-2-yl]-8-[(2-methylpropyl)amino]imidazo[1,2-a]pyrazin-3-yl}-N-cyclopropylbenzamide] | 4.1
CC(C)(C)OC(=O)NCCCNc1nc(-c2ccncc2)cn2c(-c3ccc(C(=O)NC4CC4)cc3)cnc12 [Example 2-1, tert-butyl [3-({3-[4-(cyclopropylcarbamoyl)phenyl]-6-(pyridin-4-yl)imidazo[1,2-a]pyrazin-8-yl}amino)propyl]carbamate] | 8.3
C/C=C/c1cn2c(-c3ccc(C(=O)NC4CC4)c(F)c3)cnc2c(NCC(C)(C)O)n1 [Example 1-16, N-cyclopropyl-2-fluoro-4-{8-[(2-hydroxy-2-methylpropyl)amino]-6-[(1E)-prop-1-en-1-yl]imidazo[1,2-a]pyrazin-3-yl}benzamide] | 46.5
C/C=C/c1cn2c(-c3ccc(C(=O)NC4CC4)c(F)c3)cnc2c(NCCC(F)(F)F)n1 [Example 1-15, N-cyclopropyl-2-fluoro-4-{6-[(1E)-prop-1-en-1-yl]-8-[(3,3,3-trifluoropropyl)amino]imidazo[1,2-a]pyrazin-3-yl}benzamide] | 15.4
C/C=C/c1cn2c(-c3ccc(C(=O)NC4CC4)c(Cl)c3)cnc2c(NCC(C)C)n1 [Example 1-10, 2-chloro-N-cyclopropyl-4-{8-[(2-methylpropyl)amino]-6-[(1E)-prop-1-en-1-yl]imidazo[1,2-a]pyrazin-3-yl}benzamide] | 72.3
CC(C)CNc1nc(C2CC2)cn2c(-c3ccc(C(=O)NC4CC4)cc3)cnc12 [Example 1-5, N-cyclopropyl-4-{6-cyclopropyl-8-[(2-methylpropyl)amino]imidazo[1,2-a]pyrazin-3-yl}benzamide] | 6.2
CC(C)(C)OC(=O)NC/C=C\CCNc1nc(-c2ccccc2)cn2c(-c3ccc(C(=O)NC4CC4)cc3)cnc12 [Example 2-4, tert-Butyl [(2Z)-5-({3-[4-(cyclopropylcarbamoyl)phenyl]-6-phenylimidazo[1,2-a]pyrazin-8-yl}amino)pent-2-en-1-yl]carbamate] | 12.3
